From ChEMBL document CHEMBL1629577, “Activity of T-705 in a hamster model of yellow fever virus infection in comparison with that of a chemically related compound, T-1106” (Antimicrob Agents Chemother, 2009)
Active and inactive are the calls of the source. The rule behind the calls is not given here.

Columns and labels:
[1] = tested on: Yellow fever virus; experiment: Antiviral activity against 10^2 CCID50 Yellow fever virus Jimenez infected in syrian golden hamster assessed as serum survival of animal at 100 mg/kg/day, po administered twice daily for 8 days started 4 hrs prior to viral infection; format: functional, organism-based
[2] = tested on: Yellow fever virus; experiment: Antiviral activity against 10^2 CCID50 Yellow fever virus Jimenez infected in syrian golden hamster assessed as mean day of death […] at 400 mg/kg/day, po administered twice daily for 8 days started 2 day post infection; format: functional
[3] = tested on: Yellow fever virus; experiment: Antiviral activity against 10^2 CCID50 Yellow fever virus Jimenez infected in syrian golden hamster assessed as reduction in viral titer in liver at 200 mg/kg/day administered twice daily for 8 days started 6 days post infection by quantitative RT-PCR analysis; format: functional, organism-based
[4] = tested on: Yellow fever virus; experiment: Antiviral activity against 10^2 CCID50 Yellow fever virus Jimenez infected in syrian golden hamster assessed as serum ALT level at 400 mg/kg/day, po administered daily for days started 2 day post viral challenge; format: functional
[5] = tested on: Yellow fever virus; experiment: Antiviral activity against Yellow fever virus 17D infected in African green monkey Vero cells assessed as inhibition of virus induced cytopathic effect by luciferase reporter gene assay; format: functional, cell-based
[6] = tested on: Yellow fever virus; experiment: Antiviral activity against 10^2 CCID50 Yellow fever virus Jimenez infected in syrian golden hamster assessed as survival of animal at 400 mg/kg/day, po administered twice daily for 8 days started 2 day post viral infection; format: functional, organism-based
[7] = tested on: Yellow fever virus; experiment: Antiviral activity against 10^2 CCID50 Yellow fever virus Jimenez infected in syrian golden hamster assessed as mean day of death of mice at 400 mg/kg/day, po administered twice daily for 8 days started 4 day post infection; format: functional
[8] = tested on: Yellow fever virus; experiment: Antiviral activity against 10^2 CCID50 Yellow fever virus Jimenez infected in syrian golden hamster assessed as serum ALT level at 100 mg/kg/day, po administered twice daily for 8 days started 4 hrs prior to viral infection; format: functional
[9] = tested on: Yellow fever virus; experiment: Antiviral activity against 10^2 CCID50 Yellow fever virus Jimenez infected in syrian golden hamster assessed as serum AST level at 50 mg/kg/day, po administered twice daily for 8 days started 4 hrs prior to viral infection; format: functional, organism-based
[10] = tested on: Yellow fever virus; experiment: Antiviral activity against Yellow fever virus 17D infected in African green monkey Vero cells assessed as inhibition of virus induced cytopathic effect by microscopic analysis; format: functional, cell-based
[11] = tested on: Yellow fever virus; experiment: Antiviral activity against Yellow fever virus 17D infected in African green monkey Vero cells assessed as inhibition of virus induced cytopathic effect […] by NR dye uptake assay; format: functional, cell-based
[12] = tested on: Yellow fever virus; experiment: Antiviral activity against 10^2 CCID50 Yellow fever virus Jimenez infected in syrian golden hamster assessed as serum ALT level at 400 mg/kg/day, po administered daily for days started 5 day post viral challenge; format: functional
[13] = tested on: Yellow fever virus; experiment: Antiviral activity against 10^2 CCID50 Yellow fever virus Jimenez infected in syrian golden hamster assessed as serum ALT level in non surviving animals at 400 mg/kg/day, po administered 5 days post viral infection; format: functional
[14] = tested on: Yellow fever virus; experiment: Antiviral activity against 10^2 CCID50 Yellow fever virus Jimenez infected in syrian golden hamster assessed as mean day of death […] at 200 mg/kg/day, po administered twice daily for 8 days started 4 hrs prior to viral infection relative to control; format: functional
[15] = tested on: Yellow fever virus; experiment: Antiviral activity against 10^2 CCID50 Yellow fever virus Jimenez infected in syrian golden hamster assessed as serum ALT level at 400 mg/kg/day, po administered twice daily for 8 days started 4 hrs prior to viral infection; format: functional
[16] = tested on: Yellow fever virus; experiment: Antiviral activity against 10^2 CCID50 Yellow fever virus Jimenez infected in syrian golden hamster assessed as serum AST level at 400 mg/kg/day, po administered daily for days started 2 day post viral challenge; format: functional
[17] = tested on: Yellow fever virus; experiment: Antiviral activity against 10^2 CCID50 Yellow fever virus Jimenez infected in syrian golden hamster assessed as serum AST level at 32 mg/kg/day, po administered twice daily for 8 days started 4 hrs prior to viral infection; format: functional, organism-based
[18] = tested on: Yellow fever virus; experiment: Antiviral activity against 10^2 CCID50 Yellow fever virus Jimenez infected in syrian golden hamster assessed as serum ALT level in surviving animals at 400 mg/kg/day, po administered 4 days post viral infection; format: functional
[19] = tested on: Yellow fever virus; experiment: Antiviral activity against 10^2 CCID50 Yellow fever virus Jimenez infected in syrian golden hamster assessed as serum ALT level at 200 mg/kg/day, po administered twice daily for 8 days started 4 hrs prior to viral infection; format: functional
[20] = tested on: Yellow fever virus; experiment: Antiviral activity against 10^2 CCID50 Yellow fever virus Jimenez infected in syrian golden hamster assessed as mean day of death […] at 400 mg/kg/day, po administered twice daily for 8 days started 1 day post infection; format: functional
[21] = tested on: Yellow fever virus; experiment: Antiviral activity against 10^2 CCID50 Yellow fever virus Jimenez infected in syrian golden hamster assessed as serum AST level at 400 mg/kg/day, po administered daily for days started 5 day post viral challenge; format: functional
[22] = tested on: Yellow fever virus; experiment: Antiviral activity against 10^2 CCID50 Yellow fever virus Jimenez infected in syrian golden hamster assessed as serum AST level in surviving animals at 400 mg/kg/day, po administered 5 days post viral infection; format: functional
[23] = tested on: Yellow fever virus; experiment: Antiviral activity against 10^2 CCID50 Yellow fever virus Jimenez infected in syrian golden hamster assessed as serum survival of animal at 200 mg/kg/day, po administered twice daily for 8 days started 4 hrs prior to viral infection; format: functional, organism-based
[24] = tested on: Yellow fever virus; experiment: Antiviral activity against 10^2 CCID50 Yellow fever virus Jimenez infected in syrian golden hamster assessed as serum AST level at 400 mg/kg/day, po administered daily for days started 4 day post viral challenge; format: functional
[25] = tested on: Yellow fever virus; experiment: Antiviral activity against 10^2 CCID50 Yellow fever virus Jimenez infected in syrian golden hamster assessed as serum AST level at 400 mg/kg/day, po administered daily for days started 1 day post viral challenge; format: functional
[26] = tested on: Yellow fever virus; experiment: Antiviral activity against 10^2 CCID50 Yellow fever virus Jimenez infected in syrian golden hamster assessed as serum AST level at 400 mg/kg/day, po administered daily for days started 3 day post viral challenge; format: functional
[27] = tested on: Yellow fever virus; experiment: Antiviral activity against Yellow fever virus 17D infected in African green monkey Vero cells assessed as time required for inhibition of viral replication at 6400 uM up to 12 hrs post-viral infection; format: functional, cell-based
[28] = tested on: Yellow fever virus; experiment: Antiviral activity against 10^2 CCID50 Yellow fever virus Jimenez infected in syrian golden hamster assessed as serum AST level at 400 mg/kg/day, po administered twice daily for 8 days started 4 hrs prior to viral infection; format: functional, organism-based
[29] = tested on: Yellow fever virus; experiment: Antiviral activity against 10^2 CCID50 Yellow fever virus Jimenez infected in syrian golden hamster assessed as survival of animal at 400 mg/kg/day, po administered twice daily for 8 days started 1 day post viral infection; format: functional, organism-based
[30] = tested on: Yellow fever virus; experiment: Antiviral activity against 10^2 CCID50 Yellow fever virus Jimenez infected in syrian golden hamster assessed as serum ALT level at 400 mg/kg/day, po administered daily for days started 3 day post viral challenge; format: functional
[31] = tested on: Yellow fever virus; experiment: Antiviral activity against 10^2 CCID50 Yellow fever virus Jimenez infected in syrian golden hamster assessed as serum AST level in surviving animals at 400 mg/kg/day, po administered 4 days post viral infection; format: functional
[32] = tested on: Yellow fever virus; experiment: Antiviral activity against 10^2 CCID50 Yellow fever virus Jimenez infected in syrian golden hamster assessed as survival of animal at 400 mg/kg/day, po administered twice daily for 8 days started 4 hrs prior to viral infection; format: functional, organism-based

NC(=O)c1nc(F)cnc1O [FAVIPIRAVIR]
Activity [1]: inactive | Time [2]: >21 days | Activity [3]: Active | Activity [4]: 84 IU/L | EC50 [5]: 270 µM | Activity [6]: Active | Time [7]: 6.5 days | Activity [8]: 157 IU/L | Activity [9]: inactive | EC50 [10]: 180 µM | EC50 [11]: 270 µM | Activity [12]: 157 IU/L | Activity [13]: 332 IU/L | Time [14]: >21 days | Activity [15]: 63 IU/L | Activity [16]: 75 IU/L | Activity [17]: inactive | Activity [18]: 77 IU/L | Activity [19]: 128 IU/L | Time [20]: >21 days | Activity [21]: 212 IU/L | Activity [22]: 153 IU/L | Activity [23]: Active | Activity [24]: 131 IU/L | Activity [25]: 52 IU/L | Activity [26]: 137 IU/L | Activity [27]: Active | Activity [28]: inactive | Activity [29]: Active | Activity [30]: 139 IU/L | Activity [31]: 132 IU/L | Activity [32]: Active
